Experimental data taken from PubChem BioAssay AID2060896 (Molecular Pharmacology Branch, DTP, NCI, 2025).

Test system: 941728-121-R-J1-PDC complex spheroid viability
Assay: Anticancer human tumor 941728-121-R-J1-PDC patient-derived lung adenocarcinoma cell line growth inhibition [RAS]
Conditions: for viability, T/C: stronger effect = lower value; active = viability on the fitted dose curve at most 10% of control; inactive = the rest
In short: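 Tumour cells grown as complex spheroids with HUVEC endothelial cells and mesenchymal stem cells, treated with RAS pathway inhibitor combinations. Each agent spans half-log steps from near clinical Cmax, or 10 microM where Cmax is unknown.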

[1] = curve of first compound, second compound 0.000949 µM
[2] = curve of first compound, second compound 0.003 µM
[3] = curve of first compound, second compound 0.00949 µM
[4] = curve of first compound, second compound 0.03 µM
[5] = curve of first compound, second compound 0.0949 µM
[6] = curve of first compound, second compound 0.3 µM
[7] = second compound 0.000949 µM, first compound 0.00316 µM
[8] = second compound 0.000949 µM, first compound 0.01 µM
[9] = second compound 0.000949 µM, first compound 0.0316 µM
[10] = second compound 0.000949 µM, first compound 0.1 µM
[11] = second compound 0.003 µM, first compound 0.00316 µM
[12] = second compound 0.003 µM, first compound 0.01 µM
[13] = second compound 0.003 µM, first compound 0.0316 µM
[14] = second compound 0.003 µM, first compound 0.1 µM
[15] = second compound 0.00949 µM, first compound 0.00316 µM
[16] = second compound 0.00949 µM, first compound 0.01 µM
[17] = second compound 0.00949 µM, first compound 0.0316 µM
[18] = second compound 0.00949 µM, first compound 0.1 µM
[19] = second compound 0.03 µM, first compound 0.00316 µM
[20] = second compound 0.03 µM, first compound 0.01 µM
[21] = second compound 0.03 µM, first compound 0.0316 µM
[22] = second compound 0.03 µM, first compound 0.1 µM
[23] = second compound 0.0949 µM, first compound 0.00316 µM
[24] = second compound 0.0949 µM, first compound 0.01 µM
[25] = second compound 0.0949 µM, first compound 0.0316 µM
[26] = second compound 0.0949 µM, first compound 0.1 µM
[27] = second compound 0.3 µM, first compound 0.00316 µM
[28] = second compound 0.3 µM, first compound 0.01 µM
[29] = second compound 0.3 µM, first compound 0.0316 µM
[30] = second compound 0.3 µM, first compound 0.1 µM
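Also: spheroids exposed to compounds for 7 days before readout.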
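For viability, T/C in this document: 100% = DMSO vehicle control viability.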

CCN1CCN(Cc2ccc(Nc3ncc(F)c(-c4cc(F)c5nc(C)n(C(C)C)c5c4)n3)nc2)CC1 + CCn1c(-c2cc(N3CCN(C)CC3)cnc2C(C)OC)c2c3cc(ccc31)-c1csc(n1)CC(NC(=O)C1CC1C)C(=O)N1CCCC(N1)C(=O)OCC(C)(C)C2
inactive: viability, T/C [7] 27% | viability, T/C [8] 29.4% | viability, T/C [9] 18.9% | viability, T/C [10] 27.1% | viability, T/C (second compound 0.000949 µM, first compound 0.316 µM) 23.3% | viability, T/C (second compound 0.000949 µM, first compound 1 µM) 16.6% | viability, T/C [11] 22.8% | viability, T/C [12] 19.8% | viability, T/C [13] 14.4% | viability, T/C [14] 18.9% | viability, T/C (second compound 0.003 µM, first compound 0.316 µM) 17.7% | viability, T/C (second compound 0.003 µM, first compound 1 µM) 9.4% | viability, T/C [15] 15.1% | viability, T/C [16] 13.4% | viability, T/C [17] 13.7% | viability, T/C [18] 11.1% | viability, T/C (second compound 0.00949 µM, first compound 0.316 µM) 12.1% | viability, T/C (second compound 0.00949 µM, first compound 1 µM) 10.4% | viability, T/C [19] 13.2% | viability, T/C [20] 14.1% | viability, T/C [21] 11.8% | viability, T/C [22] 10.1% | viability, T/C [23] 13.4% | viability, T/C [24] 11.8% | viability, T/C [27] 11.3%
active: viability, T/C (second compound 0.03 µM, first compound 0.316 µM) 6.16% | viability, T/C (second compound 0.03 µM, first compound 1 µM) 11.3% | viability, T/C [25] 10.1% | viability, T/C [26] 9.14% | viability, T/C (second compound 0.0949 µM, first compound 0.316 µM) 7.16% | viability, T/C (second compound 0.0949 µM, first compound 1 µM) 9.08% | viability, T/C [28] 11.9% | viability, T/C [29] 11.7% | viability, T/C [30] 8.41% | viability, T/C (second compound 0.3 µM, first compound 0.316 µM) 6.3% | viability, T/C (second compound 0.3 µM, first compound 1 µM) 10.6%
< 3.16 nM: IC50 [1] | IC50 [2] | IC50 [3] | IC50 [4] | IC50 [5] | IC50 [6]

C#Cc1c(F)ccc2cc(O)cc(-c3ncc4c(N5CC6CCC(C5)N6)nc(OCC56CCCN5CC(F)C6)nc4c3F)c12 (stereo not given)
inactive: viability, T/C (compound 0.0316 µM) 87.4% [middle of 8 runs] | viability, T/C (compound 0.1 µM) 82.9% [middle of 8 runs] | viability, T/C (compound 0.316 µM) 61.2% [middle of 8 runs] | viability, T/C (compound 1 µM) 41.3% [middle of 8 runs] | viability, T/C (compound 3.16 µM) 32.1% [middle of 8 runs] | viability, T/C (compound 10 µM) 23.3% [middle of 8 runs]
603 nM [middle of 8 runs]: IC50 (compound alone, run of 07/15/2024)

CC1(O)CCCC1n1c(=O)c(C(F)F)cc2cnc(NC3CCN(S(C)(=O)=O)CC3)nc21 (stereo not given) + C=CC(=O)N1CCN(c2nc(OCC3CCCN3C)nc3c(F)c(-c4nc(N)cc(C)c4C(F)(F)F)c(Cl)cc23)C(C)C1
< 31.6 nM: IC50 (curve of first compound, second compound 0.00316 µM) | IC50 (curve of first compound, second compound 0.01 µM) | IC50 (curve of first compound, second compound 0.0316 µM) | IC50 (curve of first compound, second compound 0.1 µM) | IC50 (curve of first compound, second compound 0.316 µM) | IC50 (curve of first compound, second compound 1 µM)
inactive: viability, T/C (second compound 0.00316 µM, first compound 0.0316 µM) 21.1% | viability, T/C (second compound 0.00316 µM, first compound 0.1 µM) 22.3% | viability, T/C (second compound 0.00316 µM, first compound 0.316 µM) 21.8% | viability, T/C (second compound 0.00316 µM, first compound 1 µM) 24.1% | viability, T/C (second compound 0.00316 µM, first compound 3.16 µM) 21.9% | viability, T/C (second compound 0.00316 µM, first compound 10 µM) 23.6% | viability, T/C (second compound 0.01 µM, first compound 0.0316 µM) 18.8% | viability, T/C (second compound 0.01 µM, first compound 0.1 µM) 25.2% | viability, T/C (second compound 0.01 µM, first compound 0.316 µM) 19.6% | viability, T/C (second compound 0.01 µM, first compound 1 µM) 21.8% | viability, T/C (second compound 0.01 µM, first compound 3.16 µM) 23% | viability, T/C (second compound 0.01 µM, first compound 10 µM) 26.5% | viability, T/C (second compound 0.0316 µM, first compound 0.0316 µM) 18% | viability, T/C (second compound 0.0316 µM, first compound 0.1 µM) 17.9% | viability, T/C (second compound 0.0316 µM, first compound 0.316 µM) 21.4% | viability, T/C (second compound 0.0316 µM, first compound 1 µM) 19.1% | viability, T/C (second compound 0.0316 µM, first compound 3.16 µM) 20.3% | viability, T/C (second compound 0.0316 µM, first compound 10 µM) 23.1% | viability, T/C (second compound 0.1 µM, first compound 0.0316 µM) 20.1% | viability, T/C (second compound 0.1 µM, first compound 0.1 µM) 18.7% | viability, T/C (second compound 0.1 µM, first compound 0.316 µM) 20.1% | viability, T/C (second compound 0.1 µM, first compound 1 µM) 22.8% | viability, T/C (second compound 0.1 µM, first compound 3.16 µM) 21.8% | viability, T/C (second compound 0.1 µM, first compound 10 µM) 24.6% | viability, T/C (second compound 0.316 µM, first compound 0.0316 µM) 21.1% | viability, T/C (second compound 0.316 µM, first compound 0.1 µM) 19.9% | viability, T/C (second compound 0.316 µM, first compound 0.316 µM) 21.4% | viability, T/C (second compound 0.316 µM, first compound 1 µM) 22.1% | viability, T/C (second compound 0.316 µM, first compound 3.16 µM) 21.6% | viability, T/C (second compound 0.316 µM, first compound 10 µM) 28.1% | viability, T/C (second compound 1 µM, first compound 0.0316 µM) 21.1% | viability, T/C (second compound 1 µM, first compound 0.1 µM) 19.7% | viability, T/C (second compound 1 µM, first compound 0.316 µM) 26.4% | viability, T/C (second compound 1 µM, first compound 1 µM) 21.9% | viability, T/C (second compound 1 µM, first compound 3.16 µM) 24.1% | viability, T/C (second compound 1 µM, first compound 10 µM) 33.4%

CCN1CCN(Cc2ccc(Nc3ncc(F)c(-c4cc(F)c5nc(C)n(C(C)C)c5c4)n3)nc2)CC1
> 1000 nM: IC50 (curve of compound)
inactive: viability, T/C (compound 0.00316 µM) 93.9% [middle of 4 runs] | viability, T/C (compound 0.01 µM) 80.5% [middle of 4 runs] | viability, T/C (compound 0.0316 µM) 65.2% [middle of 4 runs] | viability, T/C (compound 0.1 µM) 57.7% [middle of 4 runs] | viability, T/C (compound 0.316 µM) 70.8% [middle of 4 runs] | viability, T/C (compound 1 µM) 72.4% [middle of 4 runs]

CC(C)n1nc(-c2ccc3oc(N)nc3c2)c2c(N)ncnc21 + CCn1c(-c2cccnc2C(C)OC)c2c3cc(ccc31)N1CCOC(CC(NC(=O)C(C(C)C)N(C)C(=O)C3(F)CCN(C(=O)C#CC(C)(C)N(C)C)CC3)C(=O)N3CCCC(N3)C(=O)OCC(C)(C)C2)C1
active: viability, T/C [10] 6.3% | viability, T/C [14] 7.46% | viability, T/C [18] 6.25% | viability, T/C [22] 8.55% | viability, T/C [26] 10.1%
inactive: viability, T/C (second compound 0.000949 µM, first compound 0.000316 µM) 21.4% | viability, T/C (second compound 0.000949 µM, first compound 0.001 µM) 19.7% | viability, T/C [7] 12.9% | viability, T/C [8] 15.4% | viability, T/C [9] 11.6% | viability, T/C (second compound 0.003 µM, first compound 0.000316 µM) 23.6% | viability, T/C (second compound 0.003 µM, first compound 0.001 µM) 19.4% | viability, T/C [11] 14.5% | viability, T/C [12] 15.6% | viability, T/C [13] 9.94% | viability, T/C (second compound 0.00949 µM, first compound 0.000316 µM) 21% | viability, T/C (second compound 0.00949 µM, first compound 0.001 µM) 17.3% | viability, T/C [15] 19.8% | viability, T/C [16] 15.3% | viability, T/C [17] 9.22% | viability, T/C (second compound 0.03 µM, first compound 0.000316 µM) 20.8% | viability, T/C (second compound 0.03 µM, first compound 0.001 µM) 19.7% | viability, T/C [19] 16.8% | viability, T/C [20] 14.8% | viability, T/C [21] 8.83% | viability, T/C (second compound 0.0949 µM, first compound 0.000316 µM) 18.8% | viability, T/C (second compound 0.0949 µM, first compound 0.001 µM) 20.8% | viability, T/C [23] 17.4% | viability, T/C [24] 15.2% | viability, T/C [25] 9.76% | viability, T/C (second compound 0.3 µM, first compound 0.000316 µM) 21.7% | viability, T/C (second compound 0.3 µM, first compound 0.001 µM) 18.9% | viability, T/C [27] 18.9% | viability, T/C [28] 15.9% | viability, T/C [29] 10.5% | viability, T/C [30] 10.8%
< 0.316 nM: IC50 [1] | IC50 [2] | IC50 [3] | IC50 [4] | IC50 [5] | IC50 [6]
